Assay results taken from patent US20230274811A1, “METHODS OF MAKING PROSTATE CANCER TREATMENT DECISIONS” (Progenics Pharmaceuticals, Inc., priority 2020, published 2023).
“Also recorded” adds a separate entry of the source. Where two headings read alike, the source gives them in different places.

Experiments:
[1] = tested on: primary tumor in the gland; assay: OSPREY Cohort A: 18F-DCFPyL PET/CT detection of primary tumor in the prostate gland vs surgical pathology; type: in vivo, men
From the text: Sensitivity, specificity, PPV and NPV of ^18F-DCFPyL PET/CT for detecting primary tumor in the gland and pelvic lymph node metastases were compared to conventional imaging (CI), either CT or MRI. Three central, blinded, and independent readers evaluated the ^18F-DCFPyL scans and one blinded central reader interpreted the CI. Imaging results were compared to surgical pathology as the truth standard.

[2] = OSPREY safety (adverse events); type: in vivo, men
Protocol: The coprimary endpoints of sensitivity and specificity of ^18F-DCFPyL PET/CT for detecting pelvic lymph node metastases were evaluated in Cohort A. Secondary endpoints included safety in both cohorts, positive predictive value (PPV) and negative predictive value (NPV) in Cohort A, and sensitivity and PPV in Cohort B. Three central, blinded, and independent readers evaluated the ^18F-DCFPyL scans. Histopathology served as the reference standard to which imaging findings were compared. FIG. 1 provides information regarding the study design and cohorts.
Co-primary endpoints of specificity and sensitivity of ^18F-DCFPyL PET/CT for detecting prostate cancer metastases in pelvic lymph nodes were evaluated in Cohort A. Key secondary endpoints included incidence of adverse events, positive predictive value (PPV) and negative predictive value (NPV) of ^18F-DCFPyL PET/CT imaging to detect pelvic lymph node metastases in Cohort A, sensitivity and PPV of ^18F-DCFPyL PET/CT imaging to detect prostate cancer within sites of metastasis or recurrence in Cohort B. Three central, blinded, and independent readers evaluated the ^18F-DCFPyL scans. Imaging findings were compared to histopathology as the truth standard.
Pts underwent image-guided biopsy.

[3] = tested on: high-risk PCa; assay: OSPREY Cohort A sub-analysis: TNM staging by 18F-DCFPyL PET/CT at initial staging; type: in vivo; conditions: 252 men
From the text: Three central, blinded, and independent readers evaluated the ^18F-DCFPyL scans.

[4] = tested on: PCa recurrence or metastases; assay: OSPREY Cohort B sub-analysis: staging changes vs conventional imaging; type: in vivo, men
Protocol: Methods ^18F-DCFPyL-PET/CT was evaluated in 117 men with radiologic evidence of local recurrence or metastatic disease on baseline anatomical imaging (CT, MRI) or whole-body bone scintigraphy and in whom at least one lesion was deemed amenable to biopsy. […] Based on TNM staging: prostatic (T), pelvic LN (N), extra-pelvic LN (M1a), bone (M1b) and other visceral organs/soft tissue (M1c), ^18F-DCFPyL-PET/CT detection rates including lesion counts were systematically analyzed. Three central, blinded, and independent readers evaluated the ^18F-DCFPyL scans.

[5] = CONDOR safety (adverse events); type: in vivo, men
From the text: Pre- and post-treatment assessments also included vital signs and concomitant medications/procedures.

SMILES: O=C(O)CC[C@H](NC(=O)N[C@@H](CCCCNC(=O)c1ccc([18F])nc1)C(=O)O)C(=O)O [18F-DCFPyL, 2-(3-{1-carboxy-5-[(6-[^18F]fluoro-pyridine-3-carbonyl)-amino]-pentyl}ureido)-pentanedioic acid]
- PPV, median of 3 readers [1]: 100% (0.98, 1.0)
- Sensitivity, median of 3 readers [1]: 98.0% (0.96, 1.0)
- Sensitivity, median of 3 readers ([1]; listed as PyL): 98%
- drug-related serious adverse events ([2]; 385 men, both cohorts): No drug-related serious adverse events were observed
- dysgeusia, drug-related AE incidence ([2]; 385 men, both cohorts): 2.1%
- headache, drug-related AE incidence ([2]; 385 men, both cohorts): 2.1%
- men with ≥1 drug-related adverse event ([2]; 385 men, both cohorts): 7.0%
- severity of drug-related AEs (dysgeusia and generalized rash) ([2]; Cohort B): mild (Grade 1)
- pts with ≥1 drug-related AE ([2]; Cohort B, 117 men): 1.7%
- tolerability ([2]; OSPREY): generally well tolerated
- patients upstaged to N1 or M1 disease [3]: 22%
- pts staged M1a [3]: 0.4%
- pts staged M1b [3]: 9.1%
- pts staged M1c [3]: 1.2%
- pts staged with M1 disease [3]: 10.7%
- pts staged with N1 disease ([3]; no known nodal/metastatic disease on standard imaging): 14.7%
- up-staged pts with extra-pelvic biopsy confirmed M1 by pathology ([4]; 10/11): 91%
- baseline M1 pts upstaged to a higher M1 sub-stage ([4]; 10/64): 16%
- baseline M1 pts down-staged to M0 ([4]; 18/82): 22%
- pts up-staged from M0 to M1 ([4]; 19/33 M0 at baseline by conventional imaging): 58%
- patients experiencing AEs ([5]; 14 patients, 21 AEs): 6.7%
- drug-related serious adverse event ([5]; 208 men): A single serious adverse event (AE) was reported as related to study drug (hypersensitivity); also recorded: hypersensitivity was the single drug-related Grade 3 AE
- fatigue, AE incidence ([5]; 208 men): 1.0%
- headache, AE incidence ([5]; 208 men): 1.9%
- hypertension, AE incidence ([5]; 208 men): 1.0%
- drug-related serious adverse event ([5]; 208 men, listed as PyL): one drug-related SAE (hypersensitivity)
- tolerability ([5]; CONDOR): well tolerated
- Grade 4 AEs, deaths, AEs leading to discontinuation ([5]; in vivo): There were no Grade 4 AEs, nor were there deaths or AEs that led to discontinuation of the study
- changes in vital signs pre- to post-dosing ([5]; in vivo): No clinically relevant changes in vital signs were observed
- patients with Grade 3, serious AEs (hypersensitivity, headache, paresthesia) ([5]; one patient): 0.5%
- AEs in case studies 1-3 ([5]; single patients): No AEs were reported
